Experimental data published in article PMC9850094, “Chemical synthesis of a reported p47phox/p22phox inhibitor and characterization of its instability and irreproducible activity” (Frontiers in Pharmacology, 2023).
Where no end group is shown, it is not given here. TAMRA = carboxytetramethylrhodamine label; Cy5 = cyanine 5 label

How the values were obtained:
p47phox^SH3A−B = target: T1, p47phox^SH3A−B (Homo sapiens, UniProt P14598); experiment: Covalent binding assay (LC−MS); details: 15 min
T1 sequence (P14598 151-286): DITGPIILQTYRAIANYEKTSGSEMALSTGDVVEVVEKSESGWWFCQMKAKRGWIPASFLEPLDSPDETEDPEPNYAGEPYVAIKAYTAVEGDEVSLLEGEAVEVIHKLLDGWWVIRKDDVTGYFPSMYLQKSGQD
Method: LC−MS spectra were obtained using the same LC–MS system, solvents, and gradient as for the chemical stability assay, but here the LC–MS was installed with a Poroshell C18 reverse-phase column (Agilent, Poroshell, 300SB-C18, 2.1 × 75 mm). Injection volume was 10 µL and the protein eluted at 3.2 min.
Mass source parameters: Ion polarity, positive mode; drying gas flow, 12 L/min at 250 °C; nebulizer, 35 psig; VCap, 3000 V; Fragmentor, 70 V; mass scan range, 100–2000 m/z. Mass peak deconvolution was carried as described in literature (Winkler, 2010) (https://www.bioprocess.org/esiprot/esiprot_form.php). (A) LC–MS […]
corresponding to the theoretical MW of p47phox SH3A–B (17300.38 Da). (B) LC–MS data of 0.2 mg/mL […]
17300.3 Da and another (see red arrows) is a protein adduct with MW of 17421.9 ± 0.29 Da (ΔMW relative to […]
p47phoxSH3A–B is 122 Da).
MW of 17574.0 Da ± 0.23 Da (ΔMW relative to p47phoxSH3A–B is 274 Da corresponding to an ebselene-protein […]
with p47phoxSH3A–B. Similar to a phenolic Mannich base, the reaction involves an LMH001-derived quinone methide intermediate that reacts with nucleophiles from the protein leading to a +122 Da protein adduct.
(1 picture or pasted object on this page, not shown here)

[1] = tested on: p47phox/p22phox interaction; parameters: method as in Smith et al., 2012; details: ref Smith et al., 2012; cited from earlier work
[2] = target: T2, p47phox^SH3A−B (human His-tagged p47phox^151−286) (Homo sapiens, UniProt P14598); experiment: Fluorescence polarization (FP) competition assay; assay type: binding; details: for Ki: over 2–20 min
T2 construct: human His-tagged p47phox^151−286
T2 sequence (P14598 151-286): T1 sequence (P14598 151-286)
Method: Synthesized compounds were then tested for their ability to inhibit the interaction between p47phox^SH3A−B and the fluorescent peptide probes in 1×HBST (2% DMSO). The non-fluorescent p22phox^151−162 peptide (Sequence: Ac-[…]-NH2) was used as a control. […] FP values were fitted to the equation Y = Bottom + (Top-Bottom)/{1 + 10^[(LogIC50-X)*HillSlope]}, where X is the logarithmic value of the compound concentration. Hereby, the IC50 value was obtained, which together with the K d value, probe and p47phox^SH3A−B concentrations was used to calculate the theoretical competitive inhibition constant, the K i value. […] Here, 5 and 8 µM of p47phox^SH3A−B concentration was used for Cy5-p22phox^149−162 and TAMRA-p22phox^151−162, respectively.

[3] = Chemical stability assay (LC−MS); assay type: physicochemical
Method: A binary solvent system of buffer A (H2O/acetonitrile (MeCN)/formic acid, 95:5:0.1 v/v%) to buffer B (MeCN/formic acid, 99.9:0.1 v/v%) and a flow rate of 1 mL/min was used. Injection volume was 5 µL. Total sample run time was 6 min, and the percentage of buffer B increases from 0% to 100% during 0.25–4.25 min, maintains at 100% until 5 min, then decreases to 0% at 5.10 min, and stays at 0% until 6 min.

GST-p47phox^SH3A−B = tested on: GST-p47phox^SH3A−B; parameters: method as in Fan et al., 2022; details: GST-p47phox^SH3A−B / FITC-labelled p22phox^151-162 peptide, ref Fan et al., 2022, cited from earlier work
NOX2 [4] = tested on: NOX2; parameters: method as in Fan et al., 2022; details: COS-phox cells activated by PMA; ref Fan et al., 2022; read-out: IC50, NOX2 superoxide inhibition; cited from earlier work
[5] = parameters: method as in Fan et al., 2022; details: mice, iv injection; ref Fan et al., 2022; cited from earlier work
SH3A−B domain of p47phox = target: SH3A−B domain of p47phox; parameters: method as in Garsi et al., 2022; details: ref Garsi et al., 2022; read-out: Kd (SPR); cited from earlier work
NOX2 [6] = target: T3, NOX2 (Homo sapiens, UniProt P04839); experiment: NOX2 cell-based assay (WST1, PMA-activated PLB-985 cells); details: PMA-stimulated differentiated PLB-985 cells, superoxide (WST1)
T3 construct: endogenous in cells
T3 sequence (P04839 2-570 limits assumed): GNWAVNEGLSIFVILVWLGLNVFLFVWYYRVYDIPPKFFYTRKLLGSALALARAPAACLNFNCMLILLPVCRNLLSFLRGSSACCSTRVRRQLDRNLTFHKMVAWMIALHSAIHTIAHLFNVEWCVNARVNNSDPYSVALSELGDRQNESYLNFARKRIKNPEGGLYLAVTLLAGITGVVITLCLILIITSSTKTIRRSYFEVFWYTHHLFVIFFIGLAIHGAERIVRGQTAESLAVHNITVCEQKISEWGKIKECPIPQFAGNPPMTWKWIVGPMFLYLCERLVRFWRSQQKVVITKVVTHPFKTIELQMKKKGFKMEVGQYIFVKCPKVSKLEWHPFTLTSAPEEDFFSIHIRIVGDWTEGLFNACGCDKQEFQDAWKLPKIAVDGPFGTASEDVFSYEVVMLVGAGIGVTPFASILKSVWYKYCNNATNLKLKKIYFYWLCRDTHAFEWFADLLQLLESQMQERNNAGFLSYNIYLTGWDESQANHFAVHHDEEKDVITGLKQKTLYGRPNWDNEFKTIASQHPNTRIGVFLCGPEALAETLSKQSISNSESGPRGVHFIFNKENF
T3 sequence (P13498 2-195 partner limits assumed): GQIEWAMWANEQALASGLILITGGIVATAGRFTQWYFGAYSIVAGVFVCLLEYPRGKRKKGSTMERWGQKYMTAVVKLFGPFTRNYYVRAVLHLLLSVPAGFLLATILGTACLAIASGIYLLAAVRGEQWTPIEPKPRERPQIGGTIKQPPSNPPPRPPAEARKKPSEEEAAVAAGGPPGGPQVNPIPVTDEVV
Method: The assay measures extracellular superoxide generated by PMA-activated NOX2 in PLB-985 cells using the cell-impermeable tetrazolium salt WST1 as probe ([Tan and Berridge, 2000]). […] NOX2 was activated by addition of phorbol-12-myristate-13-acetate PMA (10 nM final). Absorbance (OD440) was measured with a Spectramax Paradigm reader (Molecular Devices) for 3 h. To graph the data, the rate of superoxide was calculated for the first hour.

[7] = target: T4, p47phox^SH3A-B (human His-tagged p47phox^151-286) (human, UniProt P14598 151-286); experiment: FP; 1×HBST
T4 chain: T1 sequence (P14598 151-286)

[8] = target: T4, p47phox^SH3A-B (human His-tagged …); experiment: FP; in water
[9] = tested as isolated compounds, 1×HBST, Cy5 or TAMRA probe, 2 or 20 min

In the case of `O=c1c2ccccc2[se]n1-c1ccccc1` [Ebselen], the “Protein mass increase (ΔMW relative to p47phox^SH3A–B)” value (p47phox^SH3A−B; 200 µM compound, 0.2 mg/mL p47phox^SH3A−B, HBST) is listed as 274 Da, the “Conversion of p47phox^SH3A−B to molecular adduct” value (p47phox^SH3A−B; 200 µM, HBST) is listed as “fully converted” and the IC50 [1] is listed as 0.3 µM.

With `O=C(OCc1cccc(O)c1O)c1ccc(O)c(CO)c1` [LMH001] the “Activity in the FP assay” value ([2]; up to 400 µM, 1×HBST, Cy5 or TAMRA probe, 2 or 20 min incubation) was “did not show any activity”, the “Activity in the FP assay in pure water” value ([2]; water instead of 1×HBST, Cy5 or TAMRA probe, 2 or 20 min) was “did not result in any measurable activity” and the “Degradation in the HBST buffer as function of pH” value ([3]; 1×HBST pH 6 to 8, 30 min) was “increased with pH”. For the same molecule, the LMH001 remaining ([3]; H2O, 5 min) was 86%, the LMH001 remaining ([3]; H2O, 30 min) was 76% and the LMH001 remaining ([3]; HBST, 5 min, 100 µM, relative to MeCN 5 min) was 13%. The LMH001 remaining ([3]; HBST, 30 min) was 3%, the “p47phox^SH3A−B modified” value (p47phox^SH3A−B; 200 µM (17-fold molar excess), HBST) was 20%–30% and the “Conversion of p47phox^SH3A−B to adduct” value (p47phox^SH3A−B; 200 µM, water) was “negligible conversion”. For the same molecule, the IC50 (GST-p47phox^SH3A−B) was 0.149 µM, the Ki (GST-p47phox^SH3A−B; read-out: Ki (FP)) was 0.054 µM and the IC50 (NOX2 [4]) was […]. The half-life [5] was 2.52 min.

In the case of `N=C(N)NCCC[C@@H](CCCCC1CC1)NC(=O)[C@@H]1CCCN1C(=O)[C@@H]1CCCN1C(=O)[C@@H]1CCCN1C(=O)CCC(=O)Nc1cccc(-c2ccc(Cl)c(Cl)c2)c1` [compound 2], the Kd (SH3A−B domain of p47phox) is given as 0.043 µM.

In the case of `O=C(O)c1ccc(O)c(CO)c1` [compound 13], the “Activity in the FP assay” value [2, 9] is reported as “inactive” and the “IC50, NOX2 inhibition” value (NOX2 [6]) is reported as “no activity”.

In the case of `OCc1cccc(O)c1O` [compound 15], the “Activity in the FP assay” value [2, 9] is reported as “inactive” and the IC50 (NOX2 [6]; read-out: IC50, NOX2 inhibition) is reported as 63 µM.

Ac-PPTNPPPRPPAE-NH2 [p22phox^151–162] gave a Ki ([2]; 1×HBST, probe Cy5-p22phox^149–162) of 14 to 22 µM, a Ki ([2]; 1×HBST, probe TAMRA-p22phox^151–162) of 17 to 31 µM and a Ki ([2]; water, probe Cy5-p22phox^149–162) of 170 to 220 µM. It also gave a Ki ([2]; water, probe TAMRA-p22phox^151–162) of 140 to 155 µM.

B1: carboxytetramethylrhodamine (TAMRA)-p22phox^151-162 (peptide)
chain: {TAMRA}-PPTNPPPRPPAE
In the case of B1, the Kd [7] is reported as 7 µM and the Kd [8] is reported as 40 µM.

B2: cyanine 5 (Cy5)-p22phox^149-162 (peptide)
chain: Cy5-KQPPTNPPPRPPAE
In the case of B2, the Kd [7] is reported as 1.9 µM and the Kd [8] is reported as 12 µM.
